Experimental data taken from US7250397B2, “Antiarrhythmic peptides” (Zealand Pharma A/S, priority 2000, dated 2007).

Legend:
ROS 17/2.8 cells [1] = test: Intercellular calcium wave propagation in ROS 17/2.8 cells; assay type: cell-based, rat; details: 10^−8 M, 10 minutes; 48 hours hypoxia 3-6% O2 (2.2 cells before)
Procedure: (§1) ROS 17/2.8 cells: Cells were cultured in 100 mm dishes at 37° C. with 5% CO2 and medium change every 2-3 days. ROS medium (all reagents obtained from Life Technologies) MEM (Cat.No. 31095) supplemented with 10% heat-inactivated calf serum (Cat.No. 16170), 1% NEAA (Cat.No. 11140), 1% Sodium Pyruvate (Cat.No. 11360), 1% L-Glutamine (Cat.No. 25030) and 0.1% Penicillin/Streptomycin (Cat.No. 15140). For video imaging experiments, cells were plated on coverslips at 2-3×10^5 cells/coverslip and cultured for 2-3 days before use.
The cells cultured on coverslips were loaded with 5 μM fura-2-AM (Molecular Probes, Cat.No. F-1221), for 30 minutes at 37° C., and incubated in fresh medium for 20 minutes. Coverslips were then affixed to a PDMI-2 culture chamber (Medical Systems Corp.), maintained at 37° C. with superfused CO2, on a Zeiss Axiovert microscope. Intercellular calcium waves were induced by mechanical stimulation of a single cell using a borosilicate glass micro pipette affixed to an Eppendorf 5171 micromanipulator. Imaging was performed using a MetaMorph imaging system (Universal Imaging). The excitation light (340 and 380 nm) was provided by a monochromator (T.I.L.L. Photonics GmbH). Images were acquired with an intensified CCD camera (Dage MTI) and digitized with a Matrox MVP image processing board. […]

[2] = system: phospho-inositol turnover in neonatal rat cardiomyocytes; test: Phosphoinositol turnover in rat primary cardiomyocytes; assay type: cell-based; details: 100 nM; control conditions
Procedure: Neonatal Wistar rats (1-2 days old) are used. Hank's calcium- and magnesium-free balanced salt solution, buffered with 10 mM HEPES is used for washing during cell separation procedures. The hearts are excised, the ventricles isolated and the tissue cut into small pieces. The myocardial cells are isolated by stepwise enzymatic degradation with collagenase 0.05%, as described by^[35]. After repeated rounds of centrifugation and washing, the precipitated cells are resuspended in culture medium M199 with Earle's salt, 10% NCS, penicillin (75 U/mL), and streptomycin (75 U/mL) and pre-plated in a Petri dish for 90 minutes. The non-adherent cells are collected in the culture medium and plated in multidishes at 2.5*10^5 cells/well. The cultures are kept in a water-saturated CO2-incubator at 37° C. The cardiomyocyte cultures are used for analyses after 6-7 days.
Cardiomyocyte cultures are incubated for 48 hours in culture medium containing […] myo-[2-^3H]inositol to label the inositol phospholipids. On the day of analysis the medium is replaced by a buffer solution containing lithium and incubated at 37° C., as described by Meier et al.^[36]. After at least five minutes this buffer is replaced by the same volume of buffer containing test compound and incubated for exactly 20 minutes. The reaction is stopped by rapid replacement of the buffer by ice cold 4% v/v perchloric acid (PCA) and incubation for at least 20 minutes at 0° C. The PCA-extract is neutralised and the [^3H]inositol phosphates are separated by anion-exchange chromatography using Amprep™ columns containing 100 mg SAX Quaternary amine. The [^3H]inositol mono-phosphates are eluted and radioactivity in the fraction measured by liquid scintillation counting.
Before adding test substances to the cultures, the cells are depleted of glucose and oxygen by incubating them in a N2-atmosphere in glucose-free lithium-buffer for 10 minutes at 37° C. Control cells are incubated likewise only at normal atmospheric conditions and in a buffer containing glucose.

ROS 17/2.8 cells [3] = test: Lucifer Yellow dye transfer in ROS 17/2.8 cells; assay type: cell-based, rat; details: after 48 hours in 3-6% O2 (9 cells before)
Procedure: as §1
The cells cultured on coverslips were placed in the microscope as described above. Microinjections were performed using the Eppendorf 5171 micromanipulator and the Eppendorf Transjector 5346 system. A micropipette was loaded with a 10 mM Lucifer Yellow (LY) solution (Sigma, Cat.No. L-0259). […] The excitation light for LY was 430 nm, and images were acquired as described above.
Similar experiments were performed with ROS cells. Basic coupling under physiological conditions in ROS cells was 12 cells (n=19). After 48 hours incubation in 3-6% O2, a reduction in dye transfer was seen to 9 cells (n=27).

[4] = system: isolated perfused rabbit hearts; test: Isolated perfused rabbit hearts (Langendorff), APD90 dispersion

Substance: Ac-D-Tyr-D-Pro-D-4Hyp-Gly-D-Ala-Gly-NH2 [Compound 2]
- average number of cells in the calcium wave (ROS 17/2.8 cells [1]): 5.4 cells
- effect on noradrenaline (300 nM) induced increase in phospho-inositol turnover [2]: no further effect
- average dye transfer, number of cells (ROS 17/2.8 cells [3]): 12 cells
- increase in APD90 dispersion during hypokalemic, acute myocardial ischemia [4]: prevented
